Measured values as given in US20100317578A1, “METHOD OF PROTECTING AGAINST STROKE THROUGH THE USE OF A DELTA OPIOID PEPTIDE” (priority 2009, published 2010).

Legend:
Assay type in all cases: in vivo, Sprague-Dawley rats
[1] = system: cerebral infarction in the striatum after MCAor; test: Cerebral infarction assay (TTC staining)
Fas = test: Immunohistochemistry of apoptosis markers, Fas; settings: ischemic striatum, 72 hours after MCAor
Protocol: (§1) In order to further characterize the effects of DADLE on apoptotic cell death, 20 animals were subjected to the same procedures as above, and the treatment effects of DADLE (n=10) against saline vehicle alone (n=10) were compared. Rats were euthanized at 72 hours after MCAor surgery. The rats were perfused transcardially with 200 ml of cold phosphate-buffered saline (PBS) and 200 ml of 4% paraformaldehyde in PBS. Brains were removed and post-fixed in the same fixative overnight at 4° C. with the subsequent replacement with 30% sucrose in PBS for 72 hours. The brains were coronally sectioned at the thickness of 8 μm. Sections were washed 3 times for 5 minutes in PBS. Sections were then incubated overnight at 4° C. with caspase-3 (Abeam, 1:500) or Fas (Santa Cruz Biotechnology, 1:100) primary antibody and washed 3 times in PBS. […]
(§2) For morphological analyses, immunoreactive cells in the striatum within the ipsilateral to the stroke hemisphere were examined using a Zeiss LSM510 confocal microscope (Oberkochen, Germany). Specifically, 6 coronal sections at every 300 μm that approximately captured the ischemic striatum (AP −2.0 to +2.0 mm from the bregma) were examined from each rat and the number of positive cells was counted in each 6 high power fields and the averages were used for the statistical analyses. […]

[2] = system: ischemia-induced asymmetrical motor deficits (MCAor); test: Battery of behavioral tests after MCAor surgery
p53 mRNA = test: Determination of p53 mRNA expression (northern blot); settings: 24 hr post-MCAor
Protocol: To examine whether DADLE altered programmed cell death or apoptosis, which has been postulated to mediate ischemia-induced cell injury, the mRNA expression of the apoptotic marker p53 were assayed. At 24 hr and 72 hr after MCAor surgery, randomly selected animals that received either DADLE alone or saline alone were euthanized by rapid decapitation. The striatum was dissected and quickly frozen using dry ice then stored in −80° C. freezer until tissue processing was conducted. Total RNA extraction, northern blot analysis and hybridization were conducted using standard methods as described in Chomczynski et al., Anal Biochem 1987, 162:156-159 and Mattson, Brain Res 2000, 886:47-53 [34,35]. Analyses of resulting bands were quantified using a Macintosh computer-based image analysis system (Image, NIH). Densitometrically determined intensities of p-53 mRNA was normalized to 18S rRNA.

[3] = system: glial cell line-derived neurotrophic factor (GDNF); test: ELISA assay of GDNF in brain tissues; settings: striatal and cortical tissues, p<0.05
Protocol: (§3) To examine possible non-opioid effects of DADLE, assays of expression of neurotrophic factors (glial cell line-derived neurotrophic factor (GDNF) and nerve growth factor (NGF)) that have been previously shown to be protective against ischemia were performed. Enzyme-linked immunosorbent assay (ELISA) was conducted on ischemic animals injected either with DADLE or saline (n=6 per group). Following the same drug dosing regimen mentioned above, animals were rapidly decapitated, their brains removed and striatal and frontal cortical tissues quickly dissected. Brain homogenization and supernatant acidification were performed using methods as described in Okragly et al., Exp Neurol 1997, 145:592-596 [37] with minor modifications. Protein concentrations were measured by using the BCA Kit (Pierse, Rockford, Ill. USA). For the measurement of GDNF, mouse monoclonal anti-GDNF antibody (R & D Systems, Inc., Minnesota, USA) was used as a capture antibody and biotinylated goat anti-GDNF antibody (R & D Systems, Inc., Minnesota, USA) was used as a detection antibody. For the measurement of NGF, the NGF Emax TM ImmunoAssay system (Promega Cooperation, Madison, Wis., USA) was used. The THERMOmax 96-well microplate reader (Molecular Devices Corp., Sunnyvale, Calif. USA) was used to measure the optical densities.

[4] = system: nerve growth factor (NGF); test: ELISA assay of NGF in brain tissues; settings: striatal and cortical tissues, p>0.05
Protocol: as §3

caspase-3 = test: Immunohistochemistry of apoptosis markers, caspase-3; settings: ischemic striatum, 72 hours after MCAor
Protocol: as §1, §2

[5] = system: ischemia-induced spontaneous rotational behavior (MCAor); test: Spontaneous rotational test; settings: pooled mean of ischemic animals pretreated with saline, naltrexone alone or naloxone methiodide alone
Protocol: (§4) After recovery from anesthesia, animals were evaluated on a battery of tests including spontaneous rotational test, elevated body swing test (EBST), postural bias test and forelimb akinesia test.
(§5) The spontaneous rotational test was performed immediately after the animal's recovery from anesthesia following insertion of the embolus. The animal was placed in a chamber made of transparent Plexiglas (40×40×35.5 cm) and the direction of the animal's rotation was noted over two 5-minute sessions. Two full turns (tight ipsiversive rotations) per minute was considered indicative of a brain insult. For the postural bias test and forelimb akinesia test, a semiquantitative scale was used as described in Bederson et al., Stroke 1986, 17:472-476 [33].

[6] = system: ischemia-induced biased swing activity (MCAor); test: Elevated body swing test (EBST); settings: pooled mean of ischemic animals pretreated with saline, naltrexone alone or naloxone methiodide alone
Protocol: as §4
The EBST is described in detail in Borlongan et al., Exp Neurol 1998, 149:310-321[17], and has been utilized to characterize the biased swing activity of ischemic animals starting at one month post-ischemia and extending up to three months post-surgery. The animal was lifted 20 times by its tail and the direction of the swing was recorded.

[7] = system: ischemia-induced forelimb akinesia (MCAor); test: Forelimb akinesia test; settings: scale 0-2; pooled mean of ischemic animals pretreated with saline, naltrexone alone or naloxone methiodide alone
Protocol: The spontaneous rotational test [32] was performed immediately after the animal's recovery from anesthesia following insertion of the embolus. The animal was placed in a chamber made of transparent Plexiglas (40×40×35.5 cm) and the direction of the animal's rotation was noted over two 5-minute sessions. Two full turns (tight ipsiversive rotations) per minute was considered indicative of a brain insult [17,32].
Finally, the forelimb akinesia test involved pulling each forelimb at 90 degrees away from the body median axis. The return of the forelimb towards the midline was scored as 0 for slow movement with rigidity, 1 for slow movement, and 2 for smooth rapid movement. A score of 1 in the scale for postural bias test or forelimb akinesia test was considered as indicative of CNS dysfunction [17].

[8] = system: ischemia-induced postural bias (MCAor); test: Postural bias (tail-hang) test; settings: scale 0-3; pooled mean of ischemic animals pretreated with saline, naltrexone alone or naloxone methiodide alone
Protocol: as §5
The postural tail-hang test involved holding the animal by the tail (similar to the EBST) and noting the positions of the forelimbs. A scale is used for grading the ischemic injury-induced dysfunctions as follows: 0, rats extend straight both forelimbs, no observable deficit; 1, rats keep the left forelimb to the breast and extend straight the right forelimb; 2, rats show decreased resistance to lateral push in addition to behavior in score 1 without circling; 3, rats twist the upper half of their body in addition to behavior in score 2.
Finally, the forelimb akinesia test involved pulling each forelimb at 90 degrees away from the body median axis. The return of the forelimb towards the midline was scored as 0 for slow movement with rigidity, 1 for slow movement, and 2 for smooth rapid movement. […]

SMILES | mean volume of infarcted striatal tissue ([1]; rat, in vivo) | Fas-positive cells compared to vehicle-treated ischemic animals (Fas) | behavior in EBST, spontaneous rotational test, postural bias test and forelimb akinesia test ([2]; rat, in vivo) | increment in p-53 mRNA expression in ischemic striatum compared to intact striatum of control, normal animals (p53 mRNA; normalized to 18S rRNA, vehicle 65% increment, not significant vs control (p>0.05)) [%] | p-53 mRNA expression in ischemic striatum compared to vehicle-treated ischemic animals (p53 mRNA; only a trend, p=0.07) | levels of GDNF compared to saline-treated ischemic animals [3] | levels of NGF compared to saline-treated ischemic animals [4] | caspase-3-positive cells compared to vehicle-treated ischemic animals (caspase-3) | mean ipsiversive rotations per minute [5] [rotations per minute] | mean volume of infarcted striatal tissue ([1]; TTC staining at 24 or 72 hr after reperfusion, saline 81.2±5.3 mm^3) [mm^3] | mean percentage biased swing response [6] | mean akinesia score [7] | mean postural bias score [8] | behavior in EBST, spontaneous rotational test, postural bias test and forelimb akinesia test ([2]; ischemic rats, pretreatment i.p. before MCAor, throughout the post-MCAor test period (day 0 to 3))
CC(C)C[C@@H](NC(=O)[C@H](Cc1ccccc1)NC(=O)CNC(=O)[C@@H](C)NC(=O)[C@@H](N)Cc1ccc(O)cc1)C(=O)O [DADLE, [D-Ala^2,D-Leu^5]enkephalin] | no detectable infarction | significant reductions | near-normal behaviors | 28 | marked reduction | significantly higher | did not differ | significant reductions | – | – | – | – | – | –
C=CC[N+]1(C)CC[C@]23c4c5ccc(O)c4O[C@H]2C(=O)CC[C@@]3(O)[C@H]1C5 (stereo partly drawn) [naloxone methiodide] | – | – | significant abnormalities | – | – | – | – | – | 2.52±0.56 | 78.7±7.4 | 82.8%±12.3 | 1.17±0.15 | 2.25±0.31 | –
O=C1CC[C@@]2(O)[C@H]3Cc4ccc(O)c5c4[C@@]2(CCN3CC2CC2)[C@H]1O5 [naltrexone] | – | – | – | – | – | – | – | – | 2.52±0.56 | – | 82.8%±12.3 | – | 2.25±0.31 | significant abnormalities
